Source: publication PMC4445002, “Efficient inhibition of tumor angiogenesis and growth by a synthetic peptide blocking S100A4-methionine aminopeptidase 2 interaction” (Molecular Therapy. Methods & Clinical Development, 2015)

Assays:
PC-3M-Luc cells = test: PC-3M-Luc cell growth in vitro; format: cell-based, human
Method: Caspase3/7 assays was performed with Apo-ONE Caspase-3/7 Assay
Reagent (Promega). No significant changes are observed.
F i g . […]
PC-3M-Luc cells were treated with atelocollagen alone or the NBD peptide/atelocollagen complex in vitro, and their growth rate was monitored.
The values represent cell growth rate relative to that of control cells that is […]
MSS31 cells were incubated with the peptide/atelocollagen complexes.
Isolation of total RNA and subsequent qRT-PCR analysis were carried out as described previously (30). The GAPDH gene was used as an internal control.
(a) Proangiogenic genes in NBD and CBD peptides-treated cells. (b)
Antiangiogenic genes in NBD and CBD peptides-treated cells.

PC-3M-Luc tumors = test: Tumor growth by bioluminescence imaging of PC-3M-Luc xenografts; format: in vivo, human tumor in athymic nude mice
Method: Figure 5 Inhibition of tumor angiogenesis and tumor growth of human prostate cancer cells by the NBD peptide. The peptide/atelocollagen was injected into the subcutaneous tumors on day 3 after inoculation of PC-3M-Luc cells. Atelocollagen alone was injected as controls. (a) Microvessel density. Anti-CD31-antibody staining was used to detect angiogenesis. Arrows show microvessels. The images were digitally processed for assessment of angiogenesis. (b) Inhibition of tumor growth by peptide delivery in vivo. Representative bioluminescent images of nude are shown. L, tumors treated with the CBD peptide; R, tumors treated with the NBD peptide. (c) The photon count of the bioluminescence is shown. […]
Animal experiments were performed in compliance with the guidelines of the Institute for Laboratory Animal Research at the National Cancer Center Research Institute. […] Ten minutes later, photons from animal whole bodies were counted using the IVIS imaging system (Caliper Life Sciences) according to the manufacturer’s instructions. Data were analyzed by living image 2.50 software (Caliper Life Sciences).
The peptide/atelocollagen complex was prepared by mixing equal volumes of atelocollagen (0.1% in PBS at pH 7.4) and peptide solution (1 mg/ml) with rotation for 30 minutes at 4 °C. […] Mice were monitored by bioluminescent imaging 14 days after the injection of the peptide/atelocollagen complex. […]

MSS31 cells = test: MSS31 cell growth; format: cell-based, mouse; settings: atelocollagen complex; relative to control cells set to 100%; n = 4, P < 0.01
Method: Figure 8 Inhibition of cell cycle progression and cell growth by the NBD peptide. MSS31 cells were treated with atelocollagen alone or the NBD or the CBD peptide/atelocollagen complex in vitro. (a) Cell cycle progression. The cells were labeled with BrdU and then subjected to flow cytometry. (b) Cell growth. The values represent cell growth rate relative to that of control cells that is set to 100%. The NBD peptide inhibited the growth of MSS31 cells compared to the control cells (atelocollagen alone). Data represent the mean ± SD (n = 4), P < 0.01. TEXT PRINTED IN THE PICTURE: (a) NBD: S:13.2%; G1:70.7%; G2/M:9.6% | (a) CBD: S:32.1%; G1:55.4%; G2/M:8.9% | (a) peptide(−): S:36.7%; G1:49.6%; G2/M:9.7%

[1] = tested on: FAK (Tyr397) in MSS31 cells; test: FAK Tyr397 phosphorylation by western blot; format: cell-based, mouse; settings: vs control and CBD peptide-treated cells; 5 μg/well, 18 hours
Method: Figure 7 Stimulation of the formation of focal contacts by the NBD peptide. MSS31 cells incubated with atelocollagen alone or the peptide/atelocollagen complexes were subjected to immunofluorescent staining and western blot analysis. (a) Formation of focal adhesions. The cells were immunostained with antivinculin or anti-integrin β1 antibody followed by Alexa Fluor 488-conjugated secondary antibody. F-actin was visualized with Atto 647N-Phalloidin. Nuclei were stained with DAPI. Scale bars: 50 μm. (b) Western blot analysis of focal adhesion proteins. Total cellular proteins were subjected to immunoblot analysis. (c) Relative expression level of vinculin (VCN), integrin β1 (ITGβ1) and p-FAK. The band intensity of VCN and ITGβ1 and p-FAK relative to that of β-actin and total FAK, respectively, was measured using ImageJ software and normalized to control cells.
MSS31 cells cultured in six-well plates were incubated with 5 μg/well of the NBD or the CBD peptide/atelocollagen complex or atelocollagen alone for 18 hours and were lysed in M-PER Mammarian Protein Extraction Reagent (Thermo Fisher Scientific, Waltham, MA) containing complete, EDTA-free, EASYpack (Roche Applied Science, Penzberg, Upper Bavaria, Germany) and Halt Phosphatase Inhibitor Cocktail (Thermo Fisher Scientific). The lysates was used for immunoblot analysis. […]

NBD: N-terminal 39 amino acid sequence of SBD, from Arg170 to Ileu208; corresponding to MetAP2 (170–208) (REAAEAHRQVRKYVMSWIKPGMTMIEICEKLEDCSRKLI)
proliferation of PC-3 cells (PC-3M-Luc cells; discussion wording, p53-null cells): did not influence the proliferation of PC-3 cells
growth rate of PC-3M-Luc cells (PC-3M-Luc cells; in vitro, NBD peptide/atelocollagen complex, vs untreated, Supplementary Figure S6): comparable growth rate to that of untreated cells
vascularity and tumor regression (PC-3M-Luc tumors; single intra-tumor administration, human prostate cancer xenografts (abstract)): significantly reduced vascularity, resulting in tumor regression
tumor growth (PC-3M-Luc tumors; single intratumoral injection of 100 μg peptide in atelocollagen, bioluminescence on day 14, vs atelocollagen alone and CBD, n = 7, P < 0.05): significant inhibition of the growth of tumors
growth of MSS31 cells (MSS31 cells): significantly inhibited the growth of MSS31 cells
phosphorylation of Tyr397 of FAK [1]: no significant increase in the phosphorylation of Tyr397 of FAK
